Laboratory results reported in patent publication US4778811A, “Pharmaceutical compositions of 2-methyl-thiazolo[4,5-c]quinoline” (EGIS Gyogyszergyar, priority 1985, dated 1988).

Tests used:
[1] = Shuttle-box, acquisition of two-way conditioned avoidance reflex; assay type: in vivo
Description: The acquisition of a two-way conditioned avoidance reflex (CAR) was analyzed in the shuttle-box during 5 consecutive days. […] It consists of six boxes, each is separated inside by a barrier with a small gate in the middle. […] They were given 100 trials per day. One trial consisted of 15 s intertrial interval, followed by 15 s CS. The last 5 s of CS overlapped the first s of US. At each learning session the number of CAR and intersignal reactions (IR) was automatically counted and evaluated by multiway analysis of variance (ANOVA).

[2] = Screening test: one session conditioning / unconditioned reflex, glass cylinder jump; assay type: in vivo, rats; conditions: 0.025 mg/kg
Description: Was elaborated for studying learning and retention of rats during one session conditioning.
During conditioning rats are trained to jump onto the top of glass cylinder by the electric foot-shock (110 V). The escape reaction (unconditioned reflex, UR) is paired with a bell as conditioned stimulus. The criterion of learning is that conditioned reflex (CR) should be elicited 10 times with 10 s intervals without reinforcement. Retention of CR is taken positive when 24 h following the experiment CR can be elicited. In these experiments animals are distributed into 4 categories on the basis of their learning ability.

benzodiazepine receptor = assay: Benzodiazepine (BZD) receptor binding, 3H-diazepam displacement, crude cortical membrane preparation; conditions: crude cortical membrane, 1 hr, 0° C., TRIS-citrate buffer, pH 6.8
Description: For the studies of benzodiazepine /BZD) receptor binding crude cortical membrane preparation was used. […] ^3 H-diazepam was incubated with the membrane for 1 hr at 0° C. in TRIS-citrate buffer, pH 6.8. Specific binding was determined in the presence of 10 μM diazepam. In displacement studies chlordiazepoxide was used as control drug.

[3] = Effect on basal metabolism (O2 consumption); assay type: in vivo, rats; conditions: urethane 0.6 g/kg i.p., 30° C.
Description: The O2 consumption of rats was measured by the method of Issekutz and Issekutz (1952) at constant temperature (30° C.).
O2 consumption of the animals was expressed in ml/h and calculated for body surface, and given finally in ml/h/dm^2. Following injection of urethane and the basal O2 consumption was measured during 30 minutes. This was followed by the injection of the test substance and O2 consumption was registered immediately afterwards. The difference between the highest O2 consumption and the basal value was expressed in percent.
O2 consumption of the animals was calculated according to the following equation: [formula] V=2000 cm^3 P=pressure fall (mmHg)
T=period of measurement (h)
O2 consumption was calculated for body surface and expressed as ml/dm^2 /h. Body surface was calculated on the basis of the "Diack" formula: […]

## CNC1=Nc2ccc(Cl)cc2C(c2ccccc2)=[N+]([O-])C1 [Chlordiazepoxide, chlordiazepoxide, reference compound]
[1]; 5 mg/kg s.c., day 1
  acquisition of conditioned reflex, number of positive responses (F): 23.1
  number of intersignal reactions (IR): 108
  number of negative responses (-f): 11.8
[1]; 5 mg/kg s.c., day 2
  acquisition of conditioned reflex, number of positive responses (F): 38.7
  number of intersignal reactions (IR): 14.0
  number of negative responses (-f): 9.1
[1]; 5 mg/kg s.c., day 3
  acquisition of conditioned reflex, number of positive responses (F): 35.6
  number of intersignal reactions (IR): 8.9
  number of negative responses (-f): 10.2
[1]; 5 mg/kg s.c., day 4
  acquisition of conditioned reflex, number of positive responses (F): 41.1
  number of intersignal reactions (IR): 6.7
  number of negative responses (-f): 14.9
[1]; 5 mg/kg s.c., day 5
  acquisition of conditioned reflex, number of positive responses (F): 50.8
  number of intersignal reactions (IR): 4.2
  number of negative responses (-f): 13.0
[1]; 10 mg/kg
  number of negative responses (f) (in words): increased
[1]; 10 mg/kg s.c., day 1
  acquisition of conditioned reflex, number of positive responses (F): 19.9
  number of intersignal reactions (IR): 10.8
  number of negative responses (-f): 32.7
[1]; 10 mg/kg s.c., day 2
  acquisition of conditioned reflex, number of positive responses (F): 37.9
  number of intersignal reactions (IR): 14.7
  number of negative responses (-f): 22.8
[1]; 10 mg/kg s.c., day 3
  acquisition of conditioned reflex, number of positive responses (F): 33.7
  number of intersignal reactions (IR): 8.1
  number of negative responses (-f): 31.8
[1]; 10 mg/kg s.c., day 4
  acquisition of conditioned reflex, number of positive responses (F): 35.6
  number of intersignal reactions (IR): 6.3
  number of negative responses (-f): 36.5
[1]; 10 mg/kg s.c., day 5
  acquisition of conditioned reflex, number of positive responses (F): 41.2
  number of intersignal reactions (IR): 6.1
  number of negative responses (-f): 40.8
[1]; 25 mg/kg s.c., day 1
  acquisition of conditioned reflex, number of positive responses (F): 9.7
  number of negative responses (-f): 74.0
[1]; 25 mg/kg s.c., day 2
  acquisition of conditioned reflex, number of positive responses (F): 12.2
  number of negative responses (-f): 67.5
[1]; 25 mg/kg s.c., day 3
  acquisition of conditioned reflex, number of positive responses (F): 17.9
  number of negative responses (-f): 67.0
[1]; 25 mg/kg s.c., day 4
  acquisition of conditioned reflex, number of positive responses (F): 20.0
  number of negative responses (-f): 65.6
[1]; 25 mg/kg s.c., day 5
  acquisition of conditioned reflex, number of positive responses (F): 21.4
  number of negative responses (-f): 59.8
[1]; 10 and 5 mg/kg
  acquisition of conditioned reflex (in words): unchanged
  intersignal reactions (IR) (in words): unchanged
[2]
  inhibition of the development of conditioned reflex: does not influence the development of CR
Benzodiazepine receptor
  displacement of 3H-diazepam specific binding: displaced ^3 H-diazepam on the receptor in concentration dependent manner

## O=C(CCCN1CCC(O)(c2ccc(Cl)cc2)CC1)c1ccc(F)cc1 [Haloperidol, reference compound]
[2]
  inhibition of the development of conditioned reflex: strong inhibition
[3]
  rate of metabolism / O2 consumption: slightly decreased

## CC(N)Cc1ccccc1 (stereo not drawn) [amphetamine]
[3]
  rate of metabolism / O2 consumption: dose-dependently increased
